How the values were obtained:
Format in all cases: in vivo
ZEAMX (Zea mays) [1] = assay: greenhouse crop plant damage, post-emergence treatment; details: post-emergence application, 2 g/ha, control 21 days after treatment (greenhouse), scale from 0 to 100
Description: (§1) The seeds of the test plants were sown separately for each species. For the post-emergence treatment, the test plants were first grown to a height of 3 to 15 cm, depending on the plant habit, and only then treated with the active ingredients which had been suspended or emulsified in water. For this purpose, the test plants were either sown directly and grown in the same containers, or they were first grown separately as seedlings and transplanted into the test containers a few days prior to treatment. Depending on the species, the plants were kept at 10-25° C. or 20-35° C., respectively. The test period extended over 2 to 4 weeks. During this time, the plants were tended, and their response to the individual treatments was evaluated. Evaluation was carried out using a scale from 0 to 100. 100 means no emergence of the plants, or complete destruction of at least the aerial moieties, and 0 means no damage, or normal course of growth. A good herbicidal activity is given at values of at least 70 and a very good herbicidal activity is given at values of at least 85. [table]

[2] = test system: AMARE (Amaranthus retroflexus); assay: greenhouse herbicidal activity, post-emergence treatment; details: post-emergence method, application rate 16 g/ha, scale from 0 to 100, read-out: herbicidal activity against AMARE
Description: as §1

[3] = test system: ECHCG (Echinocloa crus-galli); assay: as above; details: scale from 0 to 100; for pest or weed control at 16 g/ha: Echinochloa crus-galli, post-emergence method, application rate 16 g/ha, read-out: herbicidal activity against ECHCG; for damages unwanted plants ECHCG: post-emergence application, 2 g/ha, control 21 days after treatment (greenhouse)
Description: as §1

[4] = test system: CHEAL (Chenopodium album); assay: as above; details: post-emergence method, application rate 16 g/ha, scale from 0 to 100, read-out: herbicidal activity against CHEAL
Description: as §1

SETVI (Setaria viridis) = assay: as above; details: post-emergence method, application rate 16 g/ha, scale from 0 to 100, read-out: herbicidal activity against SETVI
Description: as §1

[5] = test system: AMARE (Amaranthus retroflexus); assay: greenhouse herbicidal activity, pre-emergence treatment; details: pre-emergence application, 32 g/ha, control 21 days after treatment (greenhouse), scale from 0 to 100
Description: (§2) The seeds of the test plants were sown separately for each species. For the pre-emergence treatment, the active ingredients, which had been suspended or emulsified in water, were applied directly after sowing by means of finely distributing nozzles. The containers were irrigated gently to promote germination and growth and subsequently covered with transparent plastic hoods until the plants had rooted. This cover caused uniform germination of the test plants, unless this had been impaired by the active ingredients. Depending on the species, the plants were kept at 10-25° C. or 20-35° C., respectively. The test period extended over 2 to 4 weeks. During this time, the plants were tended, and their response to the individual treatments was evaluated. Evaluation was carried out using a scale from 0 to 100. 100 means no emergence of the plants, or complete destruction of at least the aerial moieties, and 0 means no damage, or normal course of growth. A good herbicidal activity is given at values of at least 70 and a very good herbicidal activity is given at values of at least 85. [table]

ZEAMX (Zea mays) [6] = assay: greenhouse crop plant damage, pre-emergence treatment; details: pre-emergence application, 32 g/ha, control 21 days after treatment (greenhouse), scale from 0 to 100
Description: as §2

Row | SMILES | damages crop plants ZEAMX (ZEAMX (Zea mays) [1]) | pest or weed control at 16 g/ha [2] | pest or weed control at 16 g/ha [3] | damages unwanted plants ECHCG [3] | pest or weed control at 16 g/ha [4] | pest or weed control at 16 g/ha (SETVI (Setaria viridis)) | damages unwanted plants AMARE [5] | damages crop plants ZEAMX (ZEAMX (Zea mays) [6])
1 | CCOC(=O)COc1ccccc1Oc1cc(-n2c(=O)c(C)c(C(F)(F)F)n(C)c2=O)c(F)cc1Cl [Example 16] | 10 | ≥ 85% | ≥ 85% | 100 | ≥ 85% | ≥ 85% |  | 
2 | O=C(O)COc1ncccc1Oc1cc(-n2nc3n(c2=O)CCCC3)c(Cl)cc1Cl [Example 8] |  | ≥ 85% | ≥ 85% |  | ≥ 85% | ≥ 85% |  | 
3 | CCOC(=O)COc1ccccc1Oc1cc(-n2c(=O)cc(C(F)(F)F)n(C)c2=O)c(F)cc1Cl [compound a-9, reference compound] | 70 |  |  | 98 |  |  | 100 | 40
4 | CCOC(=O)COc1ncccc1Oc1cc(-c2nn(C)c(OC(F)F)c2Cl)c(F)cc1Cl [Example 1, ethyl 2-[[3-[2-chloro-5-[4-chloro-5-(difluoromethoxy)-1-methyl-pyrazol-3-yl]-4-fluoro-phenoxy]-2-pyridyl]oxy]acetate] |  | ≥ 85% | ≥ 85% |  | ≥ 85% | ≥ 85% |  | 
5 | O=C(O)COc1ncccc1Oc1cc(-c2ncc(C(F)(F)F)cc2Cl)c(F)cc1Cl [Example 19] |  | ≥ 85% | ≥ 85% |  | ≥ 85% | ≥ 85% |  | 
6 | CCOC(=O)COc1ncccc1Oc1cc(-c2ncc(C(F)(F)F)cc2Cl)c(F)cc1Cl [Example 18] |  | ≥ 85% | ≥ 85% |  | ≥ 85% | ≥ 85% |  | 
7 | CCOC(=O)COc1ncccc1Oc1cc(-n2nc3n(c2=O)CCCC3)c(Cl)cc1Cl [Example 2, ethyl 2-[[3-[2,4-dichloro-5-(3-oxo-5,6,7,8-tetrahydro-[1,2,4]triazolo[4,3-a]pyridin-2-yl)phenoxy]-2-pyridyl]oxy]acetate] |  | ≥ 85% | ≥ 85% |  | ≥ 85% | ≥ 85% |  | 
8 | CCOC(=O)C(C)Oc1ncccc1Oc1cc(-n2nc3n(c2=O)CCCC3)c(Cl)cc1Cl (stereo not drawn) [Example 9] |  | ≥ 85% | ≥ 85% |  | ≥ 85% |  |  | 
9 | CCOC(=O)COc1ncccc1Oc1cc(-n2c(=O)c(C)c(C(F)(F)F)n(C)c2=O)c(F)cc1[N+](=O)[O-] [Example 4, Ethyl 2-[[3-[5-[3,5-dimethyl-2,6-dioxo-4-(trifluoromethyl)pyrimidin-1-yl]-4-fluoro-2-nitro-phenoxy]-2-pyridyl]oxy]acetate] |  | ≥ 85% | ≥ 85% |  | ≥ 85% | ≥ 85% |  | 
10 | CCOC(=O)COc1ncccc1Oc1cc(-c2nn(C)c(C(F)(F)F)cc2=O)c(F)cc1Cl [Example 15] |  | ≥ 85% | ≥ 85% |  | ≥ 85% | ≥ 85% |  | 
11 | COC(=O)C(OC)Oc1ccccc1Oc1cc(-n2nc3n(c2=O)CCCC3)c(Cl)cc1Cl (stereo not drawn) [Example 7] |  | ≥ 85% | ≥ 85% |  | ≥ 85% | ≥ 85% |  | 
12 | CCOC(=O)COc1ccccc1Oc1cc(-n2c(=S)cc(C(F)(F)F)n(C)c2=O)c(F)cc1Cl [Example 17] |  | ≥ 85% | ≥ 85% |  | ≥ 85% | ≥ 85% | 100 | 0

From patent US12133529B2, “Herbicidal phenylethers” (BASF SE, priority 2017, dated 2024)
